Experimental data as given in patent publication US20050214285A1, “Epitopes or mimotopes derived from the C-epsilon-3 or C-epsilon-4 domains of IgE, antagonists thereof, and their therapeutic uses” (SmithKline Beecham Biologicals, s.a. and Peptide …, priority 1999, published 2005).
Like-named read-outs stand apart in the source and are kept apart here. Positions of bridges follow the written chain, without caps; N, C: chain ends. Residues, ends and D or L forms follow the SMILES beside them. No end group written: not given here.

What was measured:
[1] = tested on: PTmAb0005; assay: Phage display ranking of peptide ligands for PTmAb0005; type: binding; conditions: for Rank (ECL) PTmAb0005: primary phage display biopannings (Table 6); for PTmAb Rank 0005: IgEC67 mutants (Table 8)
Experimental: (§1) Phage display libraries were used to map the binding sites of the monoclonal antibodies using three different phage libraries, displaying either the XCX15, XCX10 or XAX10 peptide sequence (where X is any amino acid) at the N-terminus of the phage gVIIIp. Tables 6 and 7 show the results of selecting for peptide ligands with the anti human IgE monoclonal antibodies […]. […]
This was performed by introducing random mutations by PCR mutagenesis and sub-cloning into the Fuse 5 vector for minor filamentous phage protein gIIIp display. These, and other results, confirmed the importance of the amino acids within IgEC67 which aligned with the Cε2 epitope. […] Mutations in other sites had little effect on the affinity to PTmAb0005.
(§2) This involved a DNA sub-cloning transfer from the major coat protein (gVIIIp) filamentous phage display vector to a lower copy number minor phage coat protein (gIIIp) display vector with a random PCR step. […] Included in the tables are ranking orders and also BIAcore affinities where available.

[2] = target: PTmAb0005; assay: BIAcore affinity to PTmAb0005; type: binding
Excerpt: as §2
(§3) Thus indicating the importance of correct presentation of the peptides of the present invention to adopt a shape which closely resembles the native target in the context of the whole IgE molecule. [drawing]

[3] = target: PTmAb0011; assay: BIAcore affinity to PTmAb0011; type: binding, mouse; conditions: for Kd: read-out: PTmAb BIAcore KD^Rel (μM) PTmAb0011
Excerpt: as §2, §3

[4] = tested on: PTmAb0011; assay: Phage display ranking of peptide ligands for PTmAb0011; type: binding, mouse; conditions: for Rank (ECL) PTmAb0011: primary phage display biopannings (Table 7); for PTmAb Rank 0011: IgEC67 mutants (Table 8)
Excerpt: as §1, §2

[5] = read-out: PTmAb BIAcore KD^Rel (μM) PTmAb0005

Molecule: CSCC[C@H](NC(=O)[C@H](CCC(N)=O)NC(=O)CNC(=O)[C@H](Cc1ccc(O)cc1)NC(=O)[C@@H](NC(=O)[C@H](CC(C)C)NC(=O)[C@H](CS)NC(=O)[C@@H](N)CCC(=O)O)C(C)C)C(=O)N[C@@H](C)C(=O)N[C@@H](CC(=O)O)C(=O)N[C@@H](CS)C(=O)N[C@@H](C)C(=O)N[C@@H](C)C(=O)NCC(=O)NCC(=O)N[C@@H](Cc1c[nH]c2ccccc12)C(=O)N1CCC[C@H]1C(=O)O [IgEC13] (H-ECLVYGQMADCAAGGWP-OH)
- Rank (ECL) PTmAb0005 [1]: 5
- Kd [2, 5]: > 1000 µM
- Kd [3]: > 1000 µM

Molecule: CSCC[C@H](NC(=O)[C@H](CCC(N)=O)NC(=O)[C@H](CC(C)C)NC(=O)CNC(=O)[C@H](CCC(=O)O)NC(=O)[C@H](CC(C)C)NC(=O)[C@@H](NC(=O)[C@H](C)NC(=O)[C@H](CC(N)=O)NC(=O)[C@H](CS)NC(=O)[C@@H](N)CCC(N)=O)C(C)C)C(=O)N[C@H](C(=O)N[C@@H](CC(=O)O)C(=O)N[C@@H](Cc1c[nH]cn1)C(=O)N[C@@H](CS)C(=O)N[C@@H](Cc1c[nH]c2ccccc12)C(=O)N[C@@H](CC(N)=O)C(=O)O)C(C)C [IgEC26] (H-QCNAVLEGLQMVDHCWN-OH)
- Rank (ECL) PTmAb0005 [1]: 43
- Kd [2, 5]: 3 µM
- Kd [3]: 53.4 µM

Molecule: CSCC[C@H](NC(=O)[C@H](CCC(=O)O)NC(=O)[C@H](CO)NC(=O)[C@H](CO)NC(=O)[C@@H]1CCCN1C(=O)[C@@H](NC(=O)[C@H](CCSC)NC(=O)[C@H](CCC(N)=O)NC(=O)[C@@H](NC(=O)[C@H](CCC(=O)O)NC(=O)[C@@H]1CCCN1C(=O)[C@H](CC(=O)O)NC(=O)[C@H](C)NC(=O)[C@@H](NC(=O)[C@H](CS)NC(=O)[C@@H](N)CS)C(C)C)[C@@H](C)O)[C@@H](C)O)C(=O)N[C@@H](Cc1ccccc1)C(=O)O [IgEC29] (H-CCVADPETQMTPSSEMF-OH)
- Rank (ECL) PTmAb0005 [1]: 40
- Kd [2, 5]: > 600 µM
- Kd [3]: > 600 µM

Molecule: CC[C@H](C)[C@H](NC(=O)[C@H](CCCCN)NC(=O)[C@H](CC(C)C)NC(=O)[C@H](CS)NC(=O)[C@@H](N)CCC(=O)O)C(=O)N[C@@H](CCC(=O)O)C(=O)N[C@@H](CCC(N)=O)C(=O)N[C@@H](CCC(N)=O)C(=O)N[C@@H](CS)C(=O)N[C@@H](C)C(=O)N[C@@H](CC(=O)O)C(=O)N[C@H](C(=O)N[C@H](C(=O)N[C@@H](CCC(=O)O)C(=O)N[C@H](C(=O)N1CCC[C@H]1C(=O)N[C@@H](CCCNC(=N)N)C(=O)O)[C@@H](C)CC)C(C)C)[C@@H](C)CC [IgEC42] (H-ECLKIEQQCADIVEIPR-OH)
- Rank (ECL) PTmAb0005 [1]: 15
- Kd [2, 5]: 19.4 µM
- Kd [3]: > 500 µM

Molecule: CSCC[C@@H]1NC(=O)[C@H](C(C)C)NC(=O)[C@H](CCC(N)=O)NC(=O)CNC(=O)[C@H](CC(=O)O)NC(=O)[C@H](CCC(=O)O)NC(=O)[C@H](CC(C)C)NC(=O)[C@@H](NC(C)=O)CSSC[C@@H](C(=O)N2CCC[C@H]2C(=O)N[C@@H](CCCNC(=N)N)C(=O)N[C@@H](CCC(=O)O)C(=O)N[C@@H](C)C(=O)N[C@@H](C)C(=O)N[C@@H](CCC(=O)O)C(=O)NCC(=O)N[C@@H](CC(=O)O)C(=O)N[C@@H](CCCCNC(C)=O)C(N)=O)NC(=O)[C@H](CC(C)C)NC(=O)[C@H](CC(=O)O)NC(=O)[C@H](C(C)C)NC(=O)[C@H](CC(=O)O)NC1=O [PT1079] (Ac-CLEDGQVMDVDLCPREAAEGDK(Ac)-NH2; disulfide 1-13)
- Kd ([2]; BIAcore, read-out: apparent affinity to PTmAb0005): 0.02 µM

Molecule: ACFSRNGQVTDVPHSCY [EEC41]
- Rank (ECL) PTmAb0011 [4]: 31

Molecule: ADGAACFMNKQMADLELCPRVAAEA [IgEC67-2]
- PTmAb Rank 0005 [1]: 3.2
- PTmAb Rank 0011 [4]: 1.8

Molecule: ADGAECFMNKQLADSELCPRVAAEA [IgEC67-13]
- PTmAb Rank 0005 [1]: 1.1
- PTmAb Rank 0011 [4]: 0.8

Molecule: ADGAGCFINKQLADLELCPREAAEA [IgEC67-12]
- PTmAb Rank 0005 [1]: 3
- PTmAb Rank 0011 [4]: 1.9

Molecule: ADGAGCFINKQLADLELCPRVAAEA [IgEC67-3]
- PTmAb Rank 0005 [1]: 3
- PTmAb Rank 0011 [4]: 1.7

Molecule: ADGAGCFMNKQLADLELCPREAAEA [IgEC67-7]
- PTmAb Rank 0005 [1]: 1
- PTmAb Rank 0011 [4]: 1

Molecule: ADGAGCFMNKQLADLEMCPRDDAEA [IgEC67-9]
- PTmAb Rank 0005 [1]: 2.7
- PTmAb Rank 0011 [4]: 2.4

Molecule: ADGAGCFMNKQLADPELCPREAEEA [IgEC67-4]
- PTmAb Rank 0005 [1]: 2.4
- PTmAb Rank 0011 [4]: 1.3

Molecule: ADGAGCFMNKQLVDLELCPRGAAEA [IgEC67-5]
- PTmAb Rank 0005 [1]: 1.9
- PTmAb Rank 0011 [4]: 1.6

Molecule: ADGAGCFMNKQMADLELCPREAAEA [IgEC67-10]
- PTmAb Rank 0005 [1]: 4.2
- PTmAb Rank 0011 [4]: 2.3

Molecule: ADGAGCFMNKQMADLELCPRTAAEA [IgEC67-1]
- PTmAb Rank 0005 [1]: 4.1
- PTmAb Rank 0011 [4]: 2.2

Molecule: ADGAGCFMNKQMADWEMCPRAAAEA [IgEC67-11]
- PTmAb Rank 0005 [1]: 1.8
- PTmAb Rank 0011 [4]: 1.9

Molecule: ADGAGCFMNKQQADLELCPRGAAEA [IgEC67-14]
- PTmAb Rank 0005 [1]: 1.2
- PTmAb Rank 0011 [4]: 0.9

Molecule: ADGAGCFMNNQLADWELCPRAAAEA [IgEC67-6]
- PTmAb Rank 0005 [1]: 1.9
- PTmAb Rank 0011 [4]: 1.6

Molecule: CLEDGQVMDVDCPREAAEGDK (disulfide 1-12 (inferred)) [PT1078, P1 mimotope]
- binding of the peptide to PTmAb0005 compared with PT1079 [2]: reduced the binding
- binding of the peptide to PTmAb0011 compared with PT1079 [3]: reduced the binding

Molecule: DCEEPMCSPVLLQKLKP [EEC17/47/25]
- Rank (ECL) PTmAb0011 [4]: 147

Molecule: DCLSKGQMADLC [EED147/173]
- Rank (ECL) PTmAb0011 [4]: 281

Molecule: DCVVDGDRLVCL [EED34/104]
- Rank (ECL) PTmAb0011 [4]: 3

Molecule: ECNQNLSGSLRHVDLNC [EEC40]
- Rank (ECL) PTmAb0011 [4]: 547

Molecule: ECPRWPLMGDGC [EED139]
- Rank (ECL) PTmAb0011 [4]: 26

Molecule: FCPEPICSPPLSRMTLS [EEC147]
- Rank (ECL) PTmAb0011 [4]: 883

Molecule: GCPMWPQPDDEC [EED132]
- Rank (ECL) PTmAb0011 [4]: 28

Molecule: GCPTWPRVGDHC [EED36]
- Rank (ECL) PTmAb0011 [4]: 52

Molecule: GCQVGELVWCRE [EED134]
- Rank (ECL) PTmAb0011 [4]: 14

Molecule: HCEEPEYSPATRVFCGR [EEC51/48/53]
- Rank (ECL) PTmAb0011 [4]: 75

Molecule: HCKNEFKKGQWTYSCSD [IgEC43]
- Rank (ECL) PTmAb0005 [1]: 0

Molecule: HCQQVFFPQDYLWCQRG [EEC36]
- Rank (ECL) PTmAb0011 [4]: 158

Molecule: KCPTYPKPNDRCLWPVP [EEC135]
- Rank (ECL) PTmAb0011 [4]: 19

Molecule: MCQGWEIVSECW [EED57]
- Rank (ECL) PTmAb0011 [4]: 0

Molecule: NCNDNPMLDCMPAWSS [EEC5]
- Rank (ECL) PTmAb0011 [4]: 0

Molecule: NCQDQMLREDAGCWSKI [EEC40A]
- Rank (ECL) PTmAb0011 [4]: 80

Molecule: QCVRDGTRKVCM [EED33]
- Rank (ECL) PTmAb0011 [4]: 7

Molecule: QIDRQITDTLL [ESB15]
- Rank (ECL) PTmAb0005 [1]: 0

Molecule: RCDQQLPRDSYTFCMMS [EEC115/3/48]
- Rank (ECL) PTmAb0011 [4]: 438

Molecule: RCEQGALRCVGE [EED41/56]
- Rank (ECL) PTmAb0011 [4]: 0

Molecule: RCQSARVVPECW [EED131/138/102]
- Rank (ECL) PTmAb0011 [4]: 32

Molecule: REQQISDVPRV [ESB26]
- Rank (ECL) PTmAb0005 [1]: 0

Molecule: RGRNQIMDLEI [ESB29/36]
- Rank (ECL) PTmAb0005 [1]: 0

Molecule: SCAPSGDCGYKG [EED18/47/48]
- Rank (ECL) PTmAb0011 [4]: 31

Molecule: SCNLNHQSCDIPPVKQI [ESC46]
- Rank (ECL) PTmAb0005 [1]: 0

Molecule: SCQGREVRRECW [EED183]
- Rank (ECL) PTmAb0011 [4]: 596

Molecule: SMEGQVRDIQV [ESB7]
- Rank (ECL) PTmAb0005 [1]: 0

Molecule: SMGQEVDRELV [ESB40]
- Rank (ECL) PTmAb0005 [1]: 0

Molecule: SMGQKVDRELV [ESB9]
- Rank (ECL) PTmAb0005 [1]: 0

Molecule: TCCVTDIPPPDYEQSLG [IgEC83]
- Rank (ECL) PTmAb0005 [1]: 0

Molecule: TCGQSELRCASLETHHV [EEC55]
- Rank (ECL) PTmAb0011 [4]: 0

Molecule: TCLVDRQESDVC [EED50]
- Rank (ECL) PTmAb0011 [4]: 6

Molecule: VCDECVSRELAL [EED35/53/164]
- Rank (ECL) PTmAb0011 [4]: 330

Molecule: VCDECVSRELAL [EED35/153/164]
- Rank (ECL) PTmAb0011 [4]: 118

Molecule: VCPPGWKNLGCN [EED51]
- Rank (ECL) PTmAb0011 [4]: 0

Molecule: WCLEPECAPGLL [EED38]
- Rank (ECL) PTmAb0011 [4]: 330

Molecule: YCPKYPLEGDCLLDNDY [EEC116]
- Rank (ECL) PTmAb0011 [4]: 4

Molecule: YQQRDLELLAE [ESB18]
- Rank (ECL) PTmAb0005 [1]: 0
